Results: patent US20100272648A1, “Methods of Identifying Improved NMDA Receptor Antagonists” (priority 2008, published 2010)
Read-outs that look alike come from different tables or passages of the source.

How the values were obtained:
[1] = molecular target: rat NMDA-NR2B containing receptors (Rattus norvegicus, UniProt P35439+Q00960); test: pH potency boost, Xenopus oocyte assay, rat receptor cDNA; type: cell-based; conditions: pH 6.9 vs 7.6, rat receptors
Description: (§1) In vitro transcribed cRNA was purified using standard methods.
(§2) Preparation of pH-dependent NMDA receptor antagonists for testing.
(§3) Voltage-clamp recordings from Xenopus oocytes.
(§4) Determination of a pH dependent potency boost in antagonism, defined as the […].

[2] = molecular target: human NMDA-NR2B containing receptors (Homo sapiens, UniProt Q05586+Q13224); test: pH potency boost, Xenopus oocyte assay, human receptor cDNA; type: cell-based; conditions: for HUMAN Boost: pH potency boost, pH 6.9 vs 7.6, human receptors; for Absolute Boost Difference: rat versus human pH potency boost
Description: as §1, §2, §3, §4

dyskinesias = conditions: add-on therapy with L-DOPA, patients; cited from earlier work
infarct volume [3] = conditions: rats, after middle cerebral artery occlusion; cited from earlier work
infarct volume [4] = conditions: cats, highest dose tested; cited from earlier work
[5] = Locomotor activity of rats (light beam breaks); type: in vivo, Sprague-Dawley rats; conditions: IP, varying doses (3-300 mg/kg, compound-specific), monitored 2 hours after injection
Description: Locomotor activity was monitored after injection for 2 hours.

NR1/NR2A receptors = NR1/NR2A receptors (Rattus norvegicus, UniProt P35439+Q00959); test: In vitro potency boost pH 6.9 vs 7.6 (NR1/NR2A, oocytes) versus infarct volume (FIG. 4); conditions: potency boost pH 6.9 vs 7.6 versus infarct volume
Description: Expression of NMDA receptors in Xenopus oocytes. cRNA was synthesized from linearized template cDNA for NMDA receptor subunits (NR1-1a, NR2B, NR2A) according to manufacturer specifications (Ambion:). cDNAs used corresponded to GenBank numbers U08261 and U11418 (NR1-1a), AF001423 and CD13211 (NR2A), U11419 (NR2B). Briefly, cDNA was linearized with an appropriate restriction enzyme downstream of the coding region, purified, and incubated with RNA polymerase and appropriate concentrations of ribonucleotides. In vitro transcribed cRNA was purified using standard methods. Quality of synthesized cRNA was assessed by gel electrophoresis, and quantity was estimated by spectroscopy and gel electrophoresis. Stage V and VI oocytes were surgically removed from the ovaries of large, well-fed and healthy Xenopus laevis anesthetized with 3-amino-benzoic acid ethyl ester (1 gm/l). Clusters of oocytes were incubated with 292 Uml Worthington (Freehold, N.J.) type IV collagenase or 1.3 mg/ml collagenase (Life Technologies, Gaithersburg, Md.; 17018-029) for 2 hr in Ca2+-free solution comprised of (in mM) 115 NaCl, 2.5 KCl, and 10 HEPES, pH 7.5, with slow agitation to remove the follicular cell layer. […]

infarct volume [6] = conditions: cats and rats, highest dose tested; cited from earlier work

human NMDA-NR2B containing receptors, sequence (Q13224 27-1484, other chains not shown): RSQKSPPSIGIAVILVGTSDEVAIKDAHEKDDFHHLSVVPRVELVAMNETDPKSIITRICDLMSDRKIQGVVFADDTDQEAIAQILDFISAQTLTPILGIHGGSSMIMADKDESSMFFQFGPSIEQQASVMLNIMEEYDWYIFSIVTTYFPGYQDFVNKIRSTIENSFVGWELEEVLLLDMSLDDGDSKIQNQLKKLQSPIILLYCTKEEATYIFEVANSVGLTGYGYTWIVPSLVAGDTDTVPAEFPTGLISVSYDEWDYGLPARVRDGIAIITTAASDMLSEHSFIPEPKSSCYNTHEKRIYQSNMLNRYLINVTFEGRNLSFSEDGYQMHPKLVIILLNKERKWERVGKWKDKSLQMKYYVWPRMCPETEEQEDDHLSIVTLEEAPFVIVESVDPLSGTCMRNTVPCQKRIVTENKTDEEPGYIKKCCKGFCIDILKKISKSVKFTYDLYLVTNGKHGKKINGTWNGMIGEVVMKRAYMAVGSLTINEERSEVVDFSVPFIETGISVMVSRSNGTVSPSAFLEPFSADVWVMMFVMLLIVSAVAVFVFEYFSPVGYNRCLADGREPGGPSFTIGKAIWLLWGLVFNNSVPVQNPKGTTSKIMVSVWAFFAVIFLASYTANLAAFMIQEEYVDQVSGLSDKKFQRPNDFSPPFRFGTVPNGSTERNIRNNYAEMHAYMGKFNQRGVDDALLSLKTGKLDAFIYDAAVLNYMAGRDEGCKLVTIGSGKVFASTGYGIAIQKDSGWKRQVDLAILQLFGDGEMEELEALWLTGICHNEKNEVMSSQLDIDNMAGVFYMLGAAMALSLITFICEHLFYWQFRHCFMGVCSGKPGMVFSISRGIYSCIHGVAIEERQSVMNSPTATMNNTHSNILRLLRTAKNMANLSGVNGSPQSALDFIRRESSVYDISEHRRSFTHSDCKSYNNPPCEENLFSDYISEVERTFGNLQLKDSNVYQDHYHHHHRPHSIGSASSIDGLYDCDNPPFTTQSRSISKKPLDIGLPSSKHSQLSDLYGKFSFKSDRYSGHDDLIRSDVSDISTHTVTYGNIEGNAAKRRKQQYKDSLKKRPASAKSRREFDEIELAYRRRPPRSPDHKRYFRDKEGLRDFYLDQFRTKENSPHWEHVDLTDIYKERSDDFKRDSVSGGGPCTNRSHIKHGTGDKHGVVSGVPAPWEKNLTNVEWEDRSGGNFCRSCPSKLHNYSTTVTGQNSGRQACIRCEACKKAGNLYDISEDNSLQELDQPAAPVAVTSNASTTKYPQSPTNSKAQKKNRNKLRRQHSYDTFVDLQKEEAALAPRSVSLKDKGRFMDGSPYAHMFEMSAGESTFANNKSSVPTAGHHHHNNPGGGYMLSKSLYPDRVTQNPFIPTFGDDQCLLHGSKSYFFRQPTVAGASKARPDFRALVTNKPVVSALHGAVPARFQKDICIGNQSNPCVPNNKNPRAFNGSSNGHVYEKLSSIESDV
rat NMDA-NR2B containing receptors, sequence (Q00960 27-1482, other chains not shown): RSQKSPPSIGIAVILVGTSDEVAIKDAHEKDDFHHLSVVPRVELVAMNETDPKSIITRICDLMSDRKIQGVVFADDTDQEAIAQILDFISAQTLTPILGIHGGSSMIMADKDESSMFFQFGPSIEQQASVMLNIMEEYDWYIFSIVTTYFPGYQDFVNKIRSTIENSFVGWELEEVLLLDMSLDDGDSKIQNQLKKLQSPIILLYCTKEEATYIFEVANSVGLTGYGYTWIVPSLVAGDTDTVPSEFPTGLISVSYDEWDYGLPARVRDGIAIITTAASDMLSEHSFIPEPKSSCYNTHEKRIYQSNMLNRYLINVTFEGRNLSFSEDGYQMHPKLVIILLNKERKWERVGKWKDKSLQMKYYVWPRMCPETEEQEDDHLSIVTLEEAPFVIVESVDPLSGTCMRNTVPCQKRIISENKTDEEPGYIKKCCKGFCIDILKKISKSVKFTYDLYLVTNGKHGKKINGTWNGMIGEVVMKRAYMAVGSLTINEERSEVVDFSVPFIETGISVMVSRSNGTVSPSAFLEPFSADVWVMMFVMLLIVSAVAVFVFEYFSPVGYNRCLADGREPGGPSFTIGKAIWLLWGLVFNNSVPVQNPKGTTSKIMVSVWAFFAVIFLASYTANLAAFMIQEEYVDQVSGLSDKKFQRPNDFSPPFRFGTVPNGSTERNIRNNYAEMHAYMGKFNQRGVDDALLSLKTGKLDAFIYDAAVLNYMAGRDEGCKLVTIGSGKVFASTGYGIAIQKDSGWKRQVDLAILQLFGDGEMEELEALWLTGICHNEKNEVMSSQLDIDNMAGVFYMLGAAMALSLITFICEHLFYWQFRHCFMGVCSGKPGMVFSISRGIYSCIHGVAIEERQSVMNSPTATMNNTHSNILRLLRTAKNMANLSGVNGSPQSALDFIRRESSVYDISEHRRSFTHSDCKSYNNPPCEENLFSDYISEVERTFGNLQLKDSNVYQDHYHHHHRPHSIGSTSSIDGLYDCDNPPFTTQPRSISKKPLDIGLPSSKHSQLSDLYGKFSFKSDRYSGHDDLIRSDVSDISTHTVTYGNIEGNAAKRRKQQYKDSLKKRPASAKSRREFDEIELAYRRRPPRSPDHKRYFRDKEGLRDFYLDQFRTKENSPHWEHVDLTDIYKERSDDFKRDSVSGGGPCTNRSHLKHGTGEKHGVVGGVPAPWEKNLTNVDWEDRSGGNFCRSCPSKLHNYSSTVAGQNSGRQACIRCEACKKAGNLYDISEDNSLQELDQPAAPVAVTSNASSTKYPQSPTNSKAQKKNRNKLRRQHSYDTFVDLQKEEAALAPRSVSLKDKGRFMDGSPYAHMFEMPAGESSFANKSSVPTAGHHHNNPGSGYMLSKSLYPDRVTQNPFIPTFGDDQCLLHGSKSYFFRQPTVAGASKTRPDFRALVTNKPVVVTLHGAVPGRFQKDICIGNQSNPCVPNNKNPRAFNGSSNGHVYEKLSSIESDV
NR1/NR2A receptors, sequence (Q00959 23-1464, other chains not shown): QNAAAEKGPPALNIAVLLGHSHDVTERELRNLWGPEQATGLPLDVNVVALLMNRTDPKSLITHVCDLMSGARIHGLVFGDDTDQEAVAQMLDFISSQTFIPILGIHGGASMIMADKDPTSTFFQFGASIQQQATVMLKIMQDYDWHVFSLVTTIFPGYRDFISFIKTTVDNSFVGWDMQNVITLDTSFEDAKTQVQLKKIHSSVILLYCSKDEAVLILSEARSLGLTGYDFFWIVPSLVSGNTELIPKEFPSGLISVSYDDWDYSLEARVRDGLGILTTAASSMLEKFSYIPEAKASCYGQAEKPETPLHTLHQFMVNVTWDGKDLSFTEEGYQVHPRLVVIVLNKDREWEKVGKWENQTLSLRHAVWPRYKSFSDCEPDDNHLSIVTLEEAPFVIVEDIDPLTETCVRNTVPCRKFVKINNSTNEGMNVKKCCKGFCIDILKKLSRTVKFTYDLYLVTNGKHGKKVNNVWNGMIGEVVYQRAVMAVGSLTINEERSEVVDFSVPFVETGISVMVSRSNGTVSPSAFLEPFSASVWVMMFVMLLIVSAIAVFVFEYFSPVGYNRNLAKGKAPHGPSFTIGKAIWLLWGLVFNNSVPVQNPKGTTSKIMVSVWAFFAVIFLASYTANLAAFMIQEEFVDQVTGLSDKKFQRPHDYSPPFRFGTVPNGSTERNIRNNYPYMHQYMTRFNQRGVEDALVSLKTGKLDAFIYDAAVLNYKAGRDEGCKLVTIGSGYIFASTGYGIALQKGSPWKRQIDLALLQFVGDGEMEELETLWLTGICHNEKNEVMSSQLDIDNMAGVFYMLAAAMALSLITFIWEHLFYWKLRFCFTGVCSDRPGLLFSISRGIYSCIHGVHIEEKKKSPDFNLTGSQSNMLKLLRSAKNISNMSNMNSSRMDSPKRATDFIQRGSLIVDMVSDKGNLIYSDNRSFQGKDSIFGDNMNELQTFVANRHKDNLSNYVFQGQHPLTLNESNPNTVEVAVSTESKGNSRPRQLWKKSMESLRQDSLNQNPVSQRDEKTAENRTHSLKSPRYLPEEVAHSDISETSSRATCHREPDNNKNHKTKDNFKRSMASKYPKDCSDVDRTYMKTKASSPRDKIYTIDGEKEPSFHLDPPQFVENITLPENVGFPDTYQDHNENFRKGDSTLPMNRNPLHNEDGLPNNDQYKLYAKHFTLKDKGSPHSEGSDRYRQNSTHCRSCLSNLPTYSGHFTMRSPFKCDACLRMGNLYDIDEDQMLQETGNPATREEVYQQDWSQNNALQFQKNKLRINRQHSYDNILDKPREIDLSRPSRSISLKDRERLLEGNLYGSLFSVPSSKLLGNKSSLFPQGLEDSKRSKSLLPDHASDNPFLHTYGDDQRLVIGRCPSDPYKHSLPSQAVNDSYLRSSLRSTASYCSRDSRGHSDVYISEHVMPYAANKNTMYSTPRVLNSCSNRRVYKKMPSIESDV

Compound	RAT Boost [1]	HUMAN Boost [2]	Absolute Boost Difference [2]	further results
C/C=C/CN(CCc1ccc(Cl)c(Cl)c1)CC(O)COc1ccc(NS(C)(=O)=O)cc1 (stereo not drawn) [Compound 93-128]	4.1	18.0	13.9	–
NC12CC3CC(CC(C3)C1)C2 [Amantadine]	–	–	–	reduction of severity of dyskinesias (dyskinesias): 60%
CC(C(O)c1ccc(O)cc1)N1CCC(Cc2ccccc2)CC1 (stereo not drawn) [Ifenprodil]	–	–	–	decrease in infarct volume (infarct volume [3]): 22%; decrease in infarct volume (infarct volume [4]): 42%
(+)MK801	–	–	–	effects on locomotor activity [5]: stereotypical biphasic effects
CCCCN(CCc1ccc(Cl)c(Cl)c1)CC(O)COc1ccc(NS(C)(=O)=O)cc1 (stereo not drawn) [Compound 93-88]	6.3	22.1	15.8	–
CS(=O)(=O)Nc1ccc(OCC(O)CN2CCN(c3ccc(F)c(F)c3)CC2)cc1 (stereo not drawn) [Compound 93-108]	3.4	17.7	14.3	–
CS(=O)(=O)Nc1ccc(OCC(O)CN(CCc2ccc(Cl)c(Cl)c2)Cc2ccccc2)cc1 (stereo not drawn) [Compound 93-30]	7.4	21.0	13.6	–
CNC1(c2ccccc2Cl)CCCCC1=O (stereo not drawn) [ketamine]	–	–	–	mean within shaded area (criteria for superior drug performance), NR1/NR2A (NR1/NR2A receptors): fall within the shaded area
CS(=O)(=O)Nc1ccc(OCC2CN(CCc3cc(Cl)c(Cl)s3)C(c3c(F)c(F)c(F)c(F)c3F)O2)cc1 (stereo not drawn) [Compound 93-176]	34.5	29.9	4.6	–
OC(CN1CCC(Cc2ccc(F)cc2)CC1)c1ccc(Cl)cc1 (stereo not drawn) [SL 82.0715]	–	–	–	decrease in infarct volume (infarct volume [6]): 36-48%
